Measurements reported in ChEMBL document CHEMBL1140427, “Semi-rational design of (north)-methanocarba nucleosides as dual acting A(1) and A(3) adenosine receptor agonists: novel prototypes for cardioprotection” (J Med Chem, 2005).

Tests used:
[1] = target: T1, Adenosine receptor A3 (Homo sapiens) (UniProt P0DMS8); assay: Maximal agonist effect at human adenosine A3 receptor in CHO cells at 10 uM by the inhibition of forskolin-stimulated cAMP production; format: functional, cell-based; set-up: scale not given: the % may be the effect or the level left
T1 sequence (whole entry): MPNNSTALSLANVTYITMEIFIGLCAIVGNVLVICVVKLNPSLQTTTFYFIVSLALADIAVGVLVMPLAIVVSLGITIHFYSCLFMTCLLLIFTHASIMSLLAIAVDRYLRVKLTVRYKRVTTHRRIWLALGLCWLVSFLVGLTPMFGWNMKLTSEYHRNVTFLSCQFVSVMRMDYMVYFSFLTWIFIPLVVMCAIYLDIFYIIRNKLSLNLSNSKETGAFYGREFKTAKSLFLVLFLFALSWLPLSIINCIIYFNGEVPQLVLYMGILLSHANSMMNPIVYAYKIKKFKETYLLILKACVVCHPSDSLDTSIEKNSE

Adenosine receptor A3 [2] = target: T2, Adenosine receptor A3 (Rattus norvegicus, UniProt P28647); assay: Binding affinity to rat adenosine A3 receptor in CHO cells; format: cell-based
T2 sequence (P28647 whole entry): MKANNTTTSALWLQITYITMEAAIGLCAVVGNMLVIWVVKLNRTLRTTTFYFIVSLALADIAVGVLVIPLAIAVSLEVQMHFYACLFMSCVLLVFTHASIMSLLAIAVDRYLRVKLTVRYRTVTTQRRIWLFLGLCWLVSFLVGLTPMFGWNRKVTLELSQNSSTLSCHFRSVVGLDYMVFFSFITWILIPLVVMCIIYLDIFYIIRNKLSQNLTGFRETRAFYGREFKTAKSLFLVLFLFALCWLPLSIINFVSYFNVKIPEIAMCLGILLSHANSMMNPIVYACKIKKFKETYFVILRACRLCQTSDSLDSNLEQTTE

Adenosine receptor A3 [3] = target: T3, Adenosine receptor A3 (Homo sapiens, UniProt P0DMS8); assay: Binding affinity to human adenosine A3 receptor in CHO cells
T3 sequence (P0DMS8 whole entry): T1 sequence (whole entry)

Adenosine receptor A2b = target: T4, Adenosine receptor A2b (Homo sapiens, UniProt P29275); assay: Agonistic effect at human adenosine A2B receptor in CHO cells; format: functional, cell-based
T4 sequence (P29275 whole entry): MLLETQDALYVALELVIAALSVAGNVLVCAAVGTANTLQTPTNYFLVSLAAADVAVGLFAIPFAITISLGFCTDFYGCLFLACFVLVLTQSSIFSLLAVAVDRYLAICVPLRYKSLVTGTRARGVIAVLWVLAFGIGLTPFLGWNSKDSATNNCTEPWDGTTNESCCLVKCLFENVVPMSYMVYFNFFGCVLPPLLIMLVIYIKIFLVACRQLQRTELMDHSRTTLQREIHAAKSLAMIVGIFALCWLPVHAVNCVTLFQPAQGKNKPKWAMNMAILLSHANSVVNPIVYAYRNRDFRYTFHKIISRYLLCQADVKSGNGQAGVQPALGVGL

Adenosine receptor A2a = Adenosine receptor A2a (Homo sapiens, UniProt P29274); assay: Displacement of [3H]R-PIA or [3H]CGS 21680 from human adenosine A2A receptor in CHO cells; format: cell-based
Adenosine receptor A2a, sequence (P29274 whole entry): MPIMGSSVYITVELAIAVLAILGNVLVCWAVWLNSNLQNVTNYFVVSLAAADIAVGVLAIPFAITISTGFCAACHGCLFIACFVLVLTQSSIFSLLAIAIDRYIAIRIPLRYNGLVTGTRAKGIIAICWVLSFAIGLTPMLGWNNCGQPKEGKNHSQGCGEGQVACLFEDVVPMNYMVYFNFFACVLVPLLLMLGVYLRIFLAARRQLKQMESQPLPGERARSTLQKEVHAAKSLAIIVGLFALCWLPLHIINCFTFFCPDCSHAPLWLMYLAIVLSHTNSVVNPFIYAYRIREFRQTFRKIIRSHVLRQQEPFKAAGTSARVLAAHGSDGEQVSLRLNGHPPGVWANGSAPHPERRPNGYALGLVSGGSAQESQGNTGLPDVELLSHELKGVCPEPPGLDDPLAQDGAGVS

Adenosine receptor A1 [4] = target: T5, Adenosine receptor A1 (Homo sapiens, UniProt P30542); assay: Displacement of [3H]R-PIA or [3H]CGS 21680 from human adenosine A1 receptor in CHO cells; format: cell-based
T5 sequence (P30542 whole entry): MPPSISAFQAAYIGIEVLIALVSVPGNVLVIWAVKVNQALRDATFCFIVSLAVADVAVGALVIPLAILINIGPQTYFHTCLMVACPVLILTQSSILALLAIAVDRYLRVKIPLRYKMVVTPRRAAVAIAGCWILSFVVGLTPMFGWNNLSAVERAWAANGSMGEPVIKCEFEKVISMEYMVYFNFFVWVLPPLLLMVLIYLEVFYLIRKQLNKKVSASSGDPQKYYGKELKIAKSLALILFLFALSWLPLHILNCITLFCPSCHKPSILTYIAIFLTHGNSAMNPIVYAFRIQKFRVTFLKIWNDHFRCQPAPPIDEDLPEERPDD

Adenosine receptor A1 [5] = target: T5, Adenosine receptor A1; assay: Agonistic effect at human adenosine A1 receptor in CHO cells; format: functional, cell-based
Adenosine receptor A3 [6] = target: T3, Adenosine receptor A3; assay: Agonistic effect at human adenosine A3 receptor in CHO cells; format: functional, cell-based
Adenosine receptor A1 [7] = target: T6, Adenosine receptor A1 (Rattus norvegicus, UniProt P25099); assay: Binding affinity to rat adenosine A1 receptor in CHO cells
T6 sequence (P25099 whole entry): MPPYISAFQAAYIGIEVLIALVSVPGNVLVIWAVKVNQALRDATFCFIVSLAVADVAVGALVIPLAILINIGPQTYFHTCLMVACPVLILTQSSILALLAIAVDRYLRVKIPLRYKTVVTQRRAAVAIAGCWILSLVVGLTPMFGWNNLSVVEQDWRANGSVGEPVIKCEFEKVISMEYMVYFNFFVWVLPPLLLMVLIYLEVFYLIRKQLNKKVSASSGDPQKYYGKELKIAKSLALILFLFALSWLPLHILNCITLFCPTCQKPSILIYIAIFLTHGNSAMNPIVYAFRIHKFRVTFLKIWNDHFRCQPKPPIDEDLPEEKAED

Activity [1] [%]	Ki (Adenosine receptor A3 [2]) [nM]	Ki (Adenosine receptor A3 [3]) [nM]	EC50 (Adenosine receptor A2b) [nM]	Ki (Adenosine receptor A2a) [nM]	Structure (SMILES)	Ki (Adenosine receptor A1 [4]) [nM]	EC50 (Adenosine receptor A1 [5]) [nM]	EC50 (Adenosine receptor A3 [6]) [nM]	Ki (Adenosine receptor A1 [7]) [nM]
112	229	112			OC[C@H]1O[C@@H](n2cnc3c(NC4C5CCC4CC5)ncnc32)[C@H](O)[C@@H]1O (stereo partly specified)				
0					OC[C@H]1O[C@@H](n2cnc3c(NC4CCCC4)nc(Cl)nc32)[C@H](O)[C@@H]1O				
72		240		462	OC[C@H]1O[C@@H](n2cnc3c(NC4CCCC4)ncnc32)[C@H](O)[C@@H]1O [N6-CYCLOPENTYLADENOSINE]				

Continued, molecule first:

Structure (SMILES)	Activity [1] [%]	Ki (Adenosine receptor A3 [2]) [nM]	Ki (Adenosine receptor A3 [3]) [nM]	EC50 (Adenosine receptor A2b) [nM]	Ki (Adenosine receptor A2a) [nM]	Ki (Adenosine receptor A1 [4]) [nM]	EC50 (Adenosine receptor A1 [5]) [nM]	EC50 (Adenosine receptor A3 [6]) [nM]	Ki (Adenosine receptor A1 [7]) [nM]
CNC(=O)C12C[C@@H]1[C@@H](n1cnc3c(NC4CCCC4)ncnc31)[C@H](O)[C@@H]2O (single isomer, unassigned)	93	10.2	13.1	> 10000	6420				
CNC(=O)C12C[C@@H]1[C@@H](n1cnc3c(NC4C5CCC4CC5)nc(Cl)nc31)[C@H](O)[C@@H]2O (single isomer, unassigned)	92	9.6	14.6	> 10000	> 10000	190			
CNC(=O)C12C[C@@H]1[C@@H](n1cnc3c(NC4CCCC4)nc(Cl)nc31)[C@H](O)[C@@H]2O (single isomer, unassigned)	101		3.7	> 10000	3250	18.3	8.2	2.8	17.4
